Source: patent US8022206B2 (OSI Pharmaceuticals, LLC, priority 2008, dated 2011)

Key:
MET (human) = MET (human) (Homo sapiens, UniProt P08581); assay: MET (human) AlphaScreen kinase assay, Km of ATP; format: biochemical; conditions: AlphaScreen, Km of ATP; read-out: Met biochemical IC50
Description: (§1) Someone skilled in the art will appreciate that a variety of assay formats may be used to determine the activity of the compounds of this invention. For example, AlphaScreen (Amplified Luminescent Proximity Homogeneous Assay) technology was used with the kinases described below. Assay ATP concentrations for individual kinases are included in the text.
Desired compound is added in a final concentration of 1% DMSO with control being vehicle of DMSO alone. MET is diluted to the optimized concentration (optimized on a lot-by-lot basis) in an enzyme diluent buffer (50 mM Tris pH=7.4, 1% glycerol, 0.03% Brij35, 0.24 mM EGTA, 1 mM DTT, and 0.003% BSA). Enzyme is added to initiate the reaction and incubated for 60 min at RT. In subdued light, appropriate amount of PT66 donor and acceptor beads (diluted 1:260 from manufacturer's provision in a 25 mM Tris HCl (pH=7.5), 400 mM NaCl, 100 mM EDTA, 0.3% BSA buffer) are added to the wells. The plates, incubated for 1 h, are read on an AlphaQuest plate reader

RON (human) = RON (human) (Homo sapiens, UniProt Q04912); assay: RON (human) AlphaScreen kinase assay, Km of ATP; format: biochemical; conditions: AlphaScreen, Km of ATP; read-out: RON biochemical IC50
RON (human), sequence (Q04912 25-1400): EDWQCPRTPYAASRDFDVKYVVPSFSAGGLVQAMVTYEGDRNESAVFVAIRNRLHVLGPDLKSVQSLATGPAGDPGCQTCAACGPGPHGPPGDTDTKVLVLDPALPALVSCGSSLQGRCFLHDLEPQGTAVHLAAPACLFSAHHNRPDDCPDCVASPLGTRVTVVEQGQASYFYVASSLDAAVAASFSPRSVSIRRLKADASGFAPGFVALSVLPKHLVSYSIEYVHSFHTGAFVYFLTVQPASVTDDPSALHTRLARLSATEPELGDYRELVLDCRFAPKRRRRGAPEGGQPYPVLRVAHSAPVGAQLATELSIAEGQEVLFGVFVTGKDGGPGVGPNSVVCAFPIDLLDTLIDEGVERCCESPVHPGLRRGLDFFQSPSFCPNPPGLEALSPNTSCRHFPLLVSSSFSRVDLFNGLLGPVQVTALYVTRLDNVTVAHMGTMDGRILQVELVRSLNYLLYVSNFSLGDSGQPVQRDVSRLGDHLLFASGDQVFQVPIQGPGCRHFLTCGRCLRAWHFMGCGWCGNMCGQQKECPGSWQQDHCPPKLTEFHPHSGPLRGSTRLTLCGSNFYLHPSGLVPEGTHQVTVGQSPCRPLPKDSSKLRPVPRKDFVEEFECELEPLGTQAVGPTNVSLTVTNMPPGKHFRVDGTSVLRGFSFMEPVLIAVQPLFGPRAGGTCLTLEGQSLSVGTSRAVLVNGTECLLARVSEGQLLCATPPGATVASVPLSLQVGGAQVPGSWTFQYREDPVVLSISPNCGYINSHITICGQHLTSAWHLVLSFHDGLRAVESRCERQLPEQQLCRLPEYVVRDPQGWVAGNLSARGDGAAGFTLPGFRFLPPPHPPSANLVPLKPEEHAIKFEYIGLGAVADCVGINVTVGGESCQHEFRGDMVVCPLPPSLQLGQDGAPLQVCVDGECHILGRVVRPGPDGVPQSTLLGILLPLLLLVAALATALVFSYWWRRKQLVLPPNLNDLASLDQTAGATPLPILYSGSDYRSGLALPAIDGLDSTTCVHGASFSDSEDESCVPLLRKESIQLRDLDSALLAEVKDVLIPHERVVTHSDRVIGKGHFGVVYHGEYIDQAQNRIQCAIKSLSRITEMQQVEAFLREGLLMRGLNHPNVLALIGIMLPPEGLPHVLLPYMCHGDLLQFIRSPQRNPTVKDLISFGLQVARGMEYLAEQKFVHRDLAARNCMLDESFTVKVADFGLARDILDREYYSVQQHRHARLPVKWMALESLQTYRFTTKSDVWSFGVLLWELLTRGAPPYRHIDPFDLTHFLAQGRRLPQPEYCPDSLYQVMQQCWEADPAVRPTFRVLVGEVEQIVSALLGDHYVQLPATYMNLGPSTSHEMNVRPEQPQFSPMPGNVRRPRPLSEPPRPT
Description: as §1
Desired compound is added in a final concentration of 1% DMSO with control being vehicle of DMSO alone. […] Enzyme is added to initiate the reaction and incubated for 30 min at RT. In subdued light, appropriate amount of PT66 donor and acceptor beads (diluted 1:260 from manufacturer's provision in a 25 mM Tris HCl (pH=7.5), 200 mM NaCl, 100 mM EDTA, 0.3% BSA buffer) are added to the wells. The plates, incubated for 1 h, are read on an AlphaQuest plate reader.

MET (human), sequence (P08581 25-1390): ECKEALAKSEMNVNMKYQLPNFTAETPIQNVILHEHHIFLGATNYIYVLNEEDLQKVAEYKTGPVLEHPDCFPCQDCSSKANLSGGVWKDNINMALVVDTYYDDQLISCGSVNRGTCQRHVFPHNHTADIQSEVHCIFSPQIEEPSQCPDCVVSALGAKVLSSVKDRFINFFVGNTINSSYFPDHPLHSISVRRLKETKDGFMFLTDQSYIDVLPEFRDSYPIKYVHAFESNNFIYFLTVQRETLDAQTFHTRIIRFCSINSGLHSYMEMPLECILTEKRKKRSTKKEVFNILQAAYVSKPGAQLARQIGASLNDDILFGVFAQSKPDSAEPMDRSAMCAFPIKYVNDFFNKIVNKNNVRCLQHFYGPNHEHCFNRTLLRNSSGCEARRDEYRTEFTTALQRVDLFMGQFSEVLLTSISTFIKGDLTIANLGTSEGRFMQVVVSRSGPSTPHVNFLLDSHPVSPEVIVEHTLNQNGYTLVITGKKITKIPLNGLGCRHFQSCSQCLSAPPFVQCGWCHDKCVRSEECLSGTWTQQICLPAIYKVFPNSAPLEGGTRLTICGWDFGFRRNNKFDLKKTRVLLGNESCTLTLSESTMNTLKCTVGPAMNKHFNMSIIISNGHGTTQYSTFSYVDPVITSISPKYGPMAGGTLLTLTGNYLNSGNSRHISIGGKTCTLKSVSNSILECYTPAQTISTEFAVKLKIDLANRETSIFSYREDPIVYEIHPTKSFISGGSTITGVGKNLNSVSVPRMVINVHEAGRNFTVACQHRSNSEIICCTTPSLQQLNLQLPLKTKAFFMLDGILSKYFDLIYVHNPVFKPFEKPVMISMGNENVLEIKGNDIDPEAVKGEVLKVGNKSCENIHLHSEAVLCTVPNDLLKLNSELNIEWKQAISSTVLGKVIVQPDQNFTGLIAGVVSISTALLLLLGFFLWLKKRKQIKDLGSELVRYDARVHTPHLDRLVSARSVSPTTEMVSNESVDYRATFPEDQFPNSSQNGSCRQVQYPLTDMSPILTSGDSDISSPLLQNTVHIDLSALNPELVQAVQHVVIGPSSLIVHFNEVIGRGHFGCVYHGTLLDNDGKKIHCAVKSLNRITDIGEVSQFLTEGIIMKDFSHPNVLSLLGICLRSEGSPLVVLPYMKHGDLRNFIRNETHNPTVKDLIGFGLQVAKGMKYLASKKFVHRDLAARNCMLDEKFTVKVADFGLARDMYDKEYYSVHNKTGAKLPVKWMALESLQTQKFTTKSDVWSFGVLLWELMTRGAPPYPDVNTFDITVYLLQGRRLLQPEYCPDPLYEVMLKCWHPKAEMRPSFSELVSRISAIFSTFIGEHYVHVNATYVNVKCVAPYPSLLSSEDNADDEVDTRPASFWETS

SMILES | IC50 (MET (human)) [nM] | IC50 (RON (human)) [nM]
C[C@@H](Oc1c(N)ncc2c(-c3cccc(O)c3)coc12)c1c(Cl)ccc(F)c1Cl [Example 128, 3-{6-Amino-7-[(R)-(2,6-dichloro-3-fluorophenyl)ethoxy]-furo[3,2-c]pyridin-3-yl}phenol] | 500 to 5000 | 500 to 5000
C[C@@H](Oc1c(N)ncc2c(-c3cccc(C(=O)O)c3)coc12)c1c(Cl)ccc(F)c1Cl [Example 80, 3-{6-Amino-7-[(R)-1-(2,6-dichloro-3-fluorophenyl)ethoxy]-furo[3,2-c]pyridin-3-yl}benzoic acid] | 500 to 5000 | 500 to 5000
C[C@@H](Oc1c(N)ncc2c(C3=CCN(C(=O)C4CCCCC4)CC3)coc12)c1c(Cl)ccc(F)c1Cl [Example 16, (4-{6-Amino-7-[(R)-1-(2,6-dichloro-3-fluorophenyl)-ethoxy]-furo[3,2-c]pyridin-3-yl}-3,6-dihydro-2H-pyridin-1-yl)-cyclohexylmethanone] | 500 to 5000 | 500 to 5000
C[C@@H](Oc1c(N)ncc2c(C3=CCN(C(C)(C)C)CC3)coc12)c1c(Cl)ccc(F)c1Cl [Example 163, 3-(1-tert-Butyl-1,2,3,6-tetrahydropyridin-4-yl)-7-[(1R)-1-(2,6-dichloro-3-fluorophenyl)ethoxy]furo[3,2-c]pyridin-6-amine] | < 500 | < 500
C[C@H](O)C(=O)N1CC=C(c2coc3c(O[C@H](C)c4c(Cl)ccc(F)c4Cl)c(N)ncc23)CC1 [Example 227, (S)-1-(4-{6-Amino-7-[(R)-1-(2,6-dichloro-3-fluorophenyl)ethoxy]-furo[3,2-c]pyridin-3-yl}-3,6-dihydro-2H-pyridin-1-yl)-2-hydroxypropan-1-one] | < 500 | 500 to 5000
C[C@@H](O)C(=O)N1CC=C(c2coc3c(O[C@H](C)c4c(Cl)ccc(F)c4Cl)c(N)ncc23)CC1 [Example 226, (R)-1-(4-{6-Amino-7-[(R)-1-(2,6-dichloro-3-fluorophenyl)ethoxy]-furo[3,2-c]pyridin-3-yl}-3,6-dihydro-2H-pyridin-1-yl)-2-hydroxypropan-1-one] | < 500 | < 500
C[C@@H](Oc1c(N)ncc2c(C3=CCN(CC(N)=O)CC3)coc12)c1c(Cl)ccc(F)c1Cl [Example 202, 2-(4-{6-Amino-7-[(R)-1-(2,6-dichloro-3-fluorophenyl)ethoxy]-furo[3,2-c]pyridin-3-yl}-3,6-dihydro-2H-pyridin-1-yl)-acetamide] | < 500 | 500 to 5000

Next, values leading:

IC50 (MET (human)) [nM] | IC50 (RON (human)) [nM] | SMILES
< 500 | 500 to 5000 | CC(Cc1ccccc1Cl)Oc1c(N)ncc2c(-c3cnn(C4CCNCC4)c3)coc12 (stereo not shown) [Example 426, 7-[2-(2-Chlorophenyl)-1-methylethoxy]-3-(1-piperidin-4-yl-1H-pyrazol-4-yl)furo[3,2-c]pyridin-6-ylamine]
500 to 5000 | 500 to 5000 | Cc1cccc(C(C)Oc2c(N)ncc3c(-c4cnn(C5CCNCC5)c4)coc23)c1 (stereo not shown) [Example 343, 3-(1-Piperidin-4-yl-1H-pyrazol-4-yl)-7-(1-m-tolylethoxy)furo[3,2-c]pyridin-6-ylamine]
< 500 | < 500 | C[C@@H](Oc1c(N)ncc2c(C3=CCN(C(=O)C4CCCCN4C)CC3)coc12)c1c(Cl)ccc(F)c1Cl (stereo partly drawn) [Example 236, (4-{6-Amino-7-[(R)-1-(2,6-dichloro-3-fluorophenyl)ethoxy]-furo[3,2-c]pyridin-3-yl}-3,6-dihydro-2H-pyridin-1-yl)-(1-methylpiperidin-2-yl)methanone]
< 500 | < 500 | CC(Oc1c(N)ncc2c(-c3cnn(C4CCNCC4)c3)coc12)c1c(F)ccc(F)c1Cl (stereo not shown) [Example 379, 7-[1-(2-Chloro-3,6-difluorophenyl)ethoxy]-3-(1-piperidin-4-yl-1H-pyrazol-4-yl)furo[3,2-c]pyridin-6-ylamine]
